This is an account of results in publication PMC6377810 (ACS chemical biology, 2018).

In experiment [1] the target is T1, Hsc70 (Homo sapiens, UniProt P11142). Put plainly: malachite green ATP turnover assay. It counts as biochemical.
Experiment [2] has as its target T1, Hsc70. Put plainly: direct binding by quench of compound fluorescence.
The target in experiment [3] is T1, Hsc70. Briefly: direct binding by quench of compound fluorescence. The source holds these as a separate data set.
In experiment [4] the target is Hsp72 (Homo sapiens) (UniProt P0DMV8). To be noted: cited from earlier work.
Experiment [5] shares this target. To be noted: cited from earlier work. The source holds these as a separate data set.

Like-named read-outs stand apart in the source and are kept apart here.

T1 sequence (P11142 whole entry): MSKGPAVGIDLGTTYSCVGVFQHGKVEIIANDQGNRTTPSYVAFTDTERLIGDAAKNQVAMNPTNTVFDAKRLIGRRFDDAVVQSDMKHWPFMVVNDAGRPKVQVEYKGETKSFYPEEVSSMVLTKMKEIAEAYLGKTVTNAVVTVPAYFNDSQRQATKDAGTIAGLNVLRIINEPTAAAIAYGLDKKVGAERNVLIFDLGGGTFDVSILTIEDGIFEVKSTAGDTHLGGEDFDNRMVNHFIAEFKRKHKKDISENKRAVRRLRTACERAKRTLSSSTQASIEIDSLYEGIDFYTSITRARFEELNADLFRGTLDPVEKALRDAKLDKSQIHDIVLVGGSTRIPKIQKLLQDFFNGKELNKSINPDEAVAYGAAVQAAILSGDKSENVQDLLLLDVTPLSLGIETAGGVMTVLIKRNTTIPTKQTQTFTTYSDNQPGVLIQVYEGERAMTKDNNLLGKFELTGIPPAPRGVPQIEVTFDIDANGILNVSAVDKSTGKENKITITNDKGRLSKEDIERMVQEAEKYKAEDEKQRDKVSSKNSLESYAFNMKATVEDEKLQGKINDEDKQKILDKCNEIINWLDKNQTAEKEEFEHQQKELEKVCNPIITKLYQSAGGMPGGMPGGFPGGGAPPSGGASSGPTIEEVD
Sequence of BAG1 (Q99933 whole entry): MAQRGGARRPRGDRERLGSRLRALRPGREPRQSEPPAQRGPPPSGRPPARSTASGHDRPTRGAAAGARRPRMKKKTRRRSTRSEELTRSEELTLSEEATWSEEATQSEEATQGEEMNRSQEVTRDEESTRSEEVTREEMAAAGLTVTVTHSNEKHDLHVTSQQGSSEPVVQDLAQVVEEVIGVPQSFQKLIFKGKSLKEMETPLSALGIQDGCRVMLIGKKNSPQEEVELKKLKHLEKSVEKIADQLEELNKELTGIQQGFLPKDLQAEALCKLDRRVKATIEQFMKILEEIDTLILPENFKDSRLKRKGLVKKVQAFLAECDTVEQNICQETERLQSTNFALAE
Sequence of Hsp72 (Homo sapiens) (P0DMV8 2-641): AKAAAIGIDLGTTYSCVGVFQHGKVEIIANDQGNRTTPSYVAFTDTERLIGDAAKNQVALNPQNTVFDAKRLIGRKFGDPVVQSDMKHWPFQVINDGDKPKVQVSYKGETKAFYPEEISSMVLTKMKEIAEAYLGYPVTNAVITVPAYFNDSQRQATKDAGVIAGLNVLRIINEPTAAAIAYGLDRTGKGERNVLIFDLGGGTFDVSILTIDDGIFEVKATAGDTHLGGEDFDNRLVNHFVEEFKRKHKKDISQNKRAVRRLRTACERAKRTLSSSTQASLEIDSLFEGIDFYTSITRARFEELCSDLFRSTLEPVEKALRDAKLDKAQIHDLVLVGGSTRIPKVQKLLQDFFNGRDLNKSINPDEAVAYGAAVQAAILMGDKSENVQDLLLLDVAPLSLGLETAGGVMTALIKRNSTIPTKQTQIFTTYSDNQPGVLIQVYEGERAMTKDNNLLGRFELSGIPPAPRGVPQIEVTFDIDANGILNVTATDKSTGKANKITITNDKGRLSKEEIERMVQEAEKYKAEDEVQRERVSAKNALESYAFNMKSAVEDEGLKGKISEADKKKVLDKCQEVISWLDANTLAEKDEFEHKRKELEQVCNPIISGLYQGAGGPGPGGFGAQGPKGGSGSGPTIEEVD

As to `Nc1ncnc2c1ncn2[C@@H]1O[C@H](COP(=O)(O)OP(=O)(O)OP(=O)(O)O)[C@@H](O)[C@H]1O` [ATP], the “malachite green ATP turnover assay; partial proteolysis in the ATP-bound state” value at Hsc70 [1] is reported as ~ 2 pmol/µM Hsc70/min.

On Hsc70 [2], `CCn1c(=O)/c(=C2\Sc3cc(Cl)ccc3N2C)s/c1=C\c1scc[n+]1Cc1cccc(C(F)(F)F)c1` [JG-115, 2-((Z)-((E)-5-(6-chloro-3-methylbenzo[d]thiazol-2(3H)-ylidene)-3-ethyl-4-oxothiazolidin-2-ylidene)methyl)-3-(3-(trifluoromethyl)benzyl)thiazol-3-ium chloride] yielded a Kd of around 3100 nM. Same read-out and setting: in the case of `CCn1c(=O)/c(=C2\Sc3cc(Cl)ccc3N2C)s/c1=C\c1scc[n+]1Cc1ccc(C(F)(F)F)cc1` [JG-118, 2-((Z)-((E)-5-(6-chloro-3-methylbenzo[d]thiazol-2(3H)-ylidene)-3-ethyl-4-oxothiazolidin-2-ylidene)methyl)-3-(4-(trifluoromethyl)benzyl)thiazol-3-ium chloride] it was around 2600 nM. Turning to `CCn1c(=O)/c(=C2\Sc3cc(Cl)ccc3N2C)s/c1=C\c1scc[n+]1Cc1ccccc1OC(F)F` [JG-237, 2-((Z)-((E)-5-(6-chloro-3-methylbenzo[d]thiazol-2(3H)-ylidene)-3-ethyl-4-oxothiazolidin-2-ylidene)methyl)-3-(2-(difluoromethoxy)benzyl)thiazol-3-ium chloride], at Hsc70 [3], the Kd was 1500 ± 300 nM. With BAG1 (from UniProt Q99933), the Kd in the experiment with Hsp72 (Homo sapiens) [4] is 8 nM; with Hsp72 (Homo sapiens) [5], 36 nM.

In general, Kd refers to the free concentration of one partner at which half of the binding sites on the other are occupied at equilibrium, for simple one-to-one binding.
